# Data reported in PMC5876397, “An advanced human in vitro co-culture model for translocation studies across the placental barrier” (Scientific Reports, 2018).
# Like-named read-outs stand apart in the source and are kept apart here.
# Assays:
# [1] = test system: BeWo b30 / HPEC-A2 co-culture
# Method: (§2) Polycarbonate Transwell® inserts (pore size 3.0 µm, growth area 1.12 cm^2, apical volume 0.5 ml, basolateral volume 1.5 ml; Corning®, Sigma-Aldrich, Buchs, Switzerland) were pre-coated with 50 µg/ml human placental collagen IV (Sigma-Aldrich, Buchs, Switzerland) for 1 h at 37 °C/5% CO2 (200 µl on both sides). Then the membrane was washed twice with phosphate buffered saline (PBS, pH 7.4, Sigma-Aldrich, Steinheim, Germany). Translocation experiments were done either with BeWo or HPEC monocultures or with both cell lines co-cultivated on a membrane. For the BeWo monolayer 1.5 × 10^5 cells in 500 µl EM were added apically and 1.5 ml EM basolaterally. For the HPEC monolayer the cells were seeded on the basolateral side of the membrane (Fig. 5a–d). Therefore, the reversed insert was placed in a 6-well plate (TPP, Faust AG, Schaffhausen, Switzerland), which had been filled with 1 ml sterile PBS to ensure a humid surrounding. Small rubber spaces (1.5 mm thick) were placed in each corner of the plate in order to slightly lift the lid to prevent direct contact of the lid with the membrane. This enables the adhesion of the drop to the lid, thereby avoiding medium loss as well as cell aggregation in the center. 1 × 10^5 HPECs in 200 µl EM were added to the membrane and the lid was immediately placed on the plate. After 2 h of incubation (37 °C, 5% CO2), the insert was placed into a 12-well plate with fresh EM (0.5 ml apical and 1.5 ml basolateral). For the co-culture, the steps described above for the monocultures were done, starting with the HPEC layer. The inserts were cultivated for 3 d at 37 °C/5% CO2 in EM (medium change after 48 h) under static conditions.
# (§3) Translocation studies were performed with co-cultured membranes as well as separate monolayers (BeWo on the apical or HPEC on the basolateral side of the insert) cultivated for 3 d as described above. […] At each time point (0, 0.25, 2, 4, 6, 8, 24 h) samples (50 µl) were taken from the basolateral chamber and renewed with fresh medium. […] Only differences were the use of EM with phenol red and sample volumes of 200 µl (basolateral) at each time point (0, 0.25, 1, 2, 6 h). Analysis of these samples was done by high performance liquid chromatography (HPLC). These studies were conducted in static and shaken (horizontal shaking at 50 rpm) conditions to determine the potential influence of simple shaking on transfer rates.
# (§4) The mass transported (ΔQn) was calculated for each time point and corrected for the mass taken before:1 ΔQn=Cn∗Vw+∑j=1n−1Vs∗Cj with the concentration measured at time tn (Cn), the volume of the well (Vw, 1.5 ml) and the sample volume (Vs). The sum of the amount removed during previous sampling is added respectively (Σ). Results were then expressed as basolateral amount of the initial dose (ID) in %. […] The permeability factor was calculated with the following two equations:2 P=ΔQ/Δt/A∗C0 3 Pe=1/(1/Pc−1/Pm) where the permeability factor (P; cm s^−1) is first calculated as the quotient of the amount transported (ΔQ; mg) at a specific time point (Δt; sec) divided by the product of the membrane surface area (cm^2) and the initial concentration of the substance (C0; mg cm^−3). Pe describes the apparent permeability factor corrected for the influence of the membrane. Therefore, the permeability value across the membrane Pm was subtracted from the permeability across the cells (Pc; monolayer or co-culture).
# BeWo b30 monolayer [2] = test system: BeWo b30 monolayer
# Method: as §2, §3, §4
# HPEC-A2 monolayer [3] = assay: Sodium fluorescein (Na-F) exclusion assay, HPEC monoculture; format: in vitro ADME, human; conditions: after 3 d of cultivation, 5 µM Na-F, 3 h incubation
# Method: (§1) To determine barrier formation, exclusion of Na-F was determined daily for 4 d. 0.5 ml of 5 µM Na-F (Sigma-Aldrich, Buchs, Switzerland) was added to the apical chamber and 1.5 ml EM (without phenol red) to the basal chamber.
# BeWo cells = conditions: cited from earlier work
# [4] = test system: BeWo b30 / HPEC-A2 co-culture; assay: Sodium fluorescein (Na-F) exclusion assay, co-culture; format: in vitro ADME, human; conditions: day 3 of cultivation, 5 µM Na-F, 3 h incubation
# Method: as §1
# HPEC-A2 monolayer [5] = test system: HPEC-A2 monolayer
# Method: as §2, §3, §4
# BeWo b30 monolayer [6] = assay: Sodium fluorescein (Na-F) exclusion assay, BeWo monoculture; format: in vitro ADME, human; conditions: day 3 of cultivation, 5 µM Na-F, 3 h incubation
# Method: as §1
# in vitro [7] = conditions: human
# Method: as §2, §3, §4
# [8] = not told, 2 h
# Method: as §2
# (§5) Translocation studies were performed with co-cultured membranes as well as separate monolayers (BeWo on the apical or HPEC on the basolateral side of the insert) cultivated for 3 d as described above. […] At each time point (0, 0.25, 2, 4, 6, 8, 24 h) samples (50 µl) were taken from the basolateral chamber and renewed with fresh medium. […]
# (§6) The mass transported (ΔQn) was calculated for each time point and corrected for the mass taken before:1 ΔQn=Cn∗Vw+∑j=1n−1Vs∗Cj with the concentration measured at time tn (Cn), the volume of the well (Vw, 1.5 ml) and the sample volume (Vs). […] Results were then expressed as basolateral amount of the initial dose (ID) in %. […] The permeability factor was calculated with the following two equations:2 P=ΔQ/Δt/A∗C0 3 Pe=1/(1/Pc−1/Pm) where the permeability factor (P; cm s^−1) is first calculated as the quotient of the amount transported (ΔQ; mg) at a specific time point (Δt; sec) divided by the product of the membrane surface area (cm^2) and the initial concentration of the substance (C0; mg cm^−3). […]
# in vitro [9] = conditions: not told, Permeability factor P2h
# Method: as §2, §5, §6
# BeWo monolayer = conditions: cited from earlier work
# [10] = Translocation across control (empty collagen-coated) insert membrane; conditions: not told, Permeability factor P2h
# Method: as §2, §5, §6
# [11] = test system: BeWo b30 / HPEC-A2 co-culture; assay: Translocation study across BeWo/HPEC co-culture (placental barrier model); conditions: after 6 h, static, 100 µM
# Method: as §2, §3, §4
# [12] = as above; conditions: human
# Method: as §2, §3, §4
# HPEC-A2 monolayer [13] = assay: Translocation study across HPEC monolayer on collagen-coated 3 µm polycarbonate Transwell insert; conditions: after 6 h, static, 100 µM
# Method: as §2, §3, §4
# [14] = as above; conditions: human
# Method: as §2, §3, §4
# BeWo b30 monolayer [15] = assay: Translocation study across BeWo monolayer on collagen-coated 3 µm polycarbonate Transwell insert; conditions: BeWo layer, after 6 h, static, 100 µM
# Method: as §2, §3, §4
# [16] = as above; conditions: human; for Papp at 2 h, 100 µM: BeWo monolayer
# Method: as §2, §3, §4
# [17] = Apparent permeability factor Pe, 2h, shaken (50 rpm), median ± mad
# [18] = Apparent permeability factor Pe, 2h, static, median ± mad
# [19] = Permeability factor P2h, shaken, without subtraction of Pmembrane
# [20] = Permeability factor P2h, static, without subtraction of Pmembrane
structure (smiles),measurement,setting,value
"O=C([O-])c1ccccc1-c1c2ccc(=O)cc-2oc2cc([O-])ccc12.[Na+].[Na+] [Na-F, sodium fluorescein]","Apparent permeability factor Pe, 2h",[1],1.1 ± 1.1 × 10^−6 cm s^−1
same,Permeability factor P2h,[1],1.0 ± 1.0 x 10-6 cm s-1
same,"Transport, basolateral amount of the initial dose (ID)",[1],35.1%
same,Permeability factor P2h,BeWo b30 monolayer [2],2.5 ± 0.4 x 10-6 cm s-1
same,"Transport, basolateral amount of the initial dose (ID)",BeWo b30 monolayer [2],34.5%
same,"Na-F translocation, basolateral amount of ID",HPEC-A2 monolayer [3],14.0 % of ID
same,Viability of BeWo cells,"BeWo cells; previous publications ref 47, 64",did not affect the viability
same,"Na-F translocation, basolateral amount of ID",[4],0.5 % of ID
same,"Transport, basolateral amount of the initial dose (ID)",HPEC-A2 monolayer [5],77.0%
same,"Na-F translocation, basolateral amount of ID",BeWo b30 monolayer [6],0.5 % of ID
Cc1cc(=O)n(-c2ccccc2)n1C [antipyrine],"Transport, basolateral amount of the initial dose (ID)","[1]; human, 6 h, 100 µM",80.9%
same,"Papp at 1 h, 100 µM",in vitro [7]; Permeability P1h,36.2 ×10⁻⁶ cm/s
same,"Papp at 1 h, 100 µM","in vitro [7]; Permeability Pe, 1h",79.3 ×10⁻⁶ cm/s
same,Permeability factor P2h,[8],35.3 ± 0.7
same,"Apparent permeability factor Pe, 2h","BeWo b30 monolayer [2]; human, 2 h, 100 µM",106.4 ± 8.2 × 10^−6 cm s^−1
same,Permeability factor P2h,"BeWo b30 monolayer [2]; human, 2 h, 100 µM",26.5 ± 1.1
same,"Transport, basolateral amount of the initial dose (ID)","BeWo b30 monolayer [2]; human, 6 h, 100 µM",74.7%
same,Viability of BeWo cells,BeWo cells,did not affect the viability
same,Papp at 2 h,in vitro [9],50 ± 3.4 ×10⁻⁶ cm/s
same,"Apparent permeability factor Pe, 2h","HPEC-A2 monolayer [5]; human, 2 h, 100 µM",76.5 ± 7.0 × 10^−6 cm s^−1
same,Permeability factor P2h,"HPEC-A2 monolayer [5]; human, 2 h, 100 µM",24.1 ± 1.0
same,"Transport, basolateral amount of the initial dose (ID)","HPEC-A2 monolayer [5]; human, 6 h, 100 µM",71.4%
same,"Permeability Pe,1h",BeWo monolayer,58 ×10⁻⁶ cm/s
COc1ccc2c(c1)c(CC(=O)O)c(C)n2C(=O)c1ccc(Cl)cc1 [indomethacin],Papp at 2 h,[10]; shaken,39.6 ± 6.5 ×10⁻⁶ cm/s
same,Papp at 2 h,"[10]; static, median ± mad",36.4 ± 1.1 ×10⁻⁶ cm/s
same,"Transport, basolateral amount of the initial dose (ID)",[11],41.5%
same,"Papp at 2 h, 100 µM",[12]; [17],30.7 ± 1.2 ×10⁻⁶ cm/s
same,"Papp at 2 h, 100 µM",[12]; [18],26.7 ± 0.2 ×10⁻⁶ cm/s
same,"Papp at 2 h, 100 µM",[12]; [19],17.3 ± 0.8 ×10⁻⁶ cm/s
same,"Papp at 2 h, 100 µM",[12]; [20],15.3 ± 1.1 ×10⁻⁶ cm/s
same,"Transport, basolateral amount of the initial dose (ID)",HPEC-A2 monolayer [13],42.9%
same,"Papp at 2 h, 100 µM",[14]; [17],22.7 ± 0.4 ×10⁻⁶ cm/s
same,"Papp at 2 h, 100 µM",[14]; [18],19 ± 0.1 ×10⁻⁶ cm/s
same,"Papp at 2 h, 100 µM",[14]; [19],14.6 ± 1.2 ×10⁻⁶ cm/s
same,"Papp at 2 h, 100 µM",[14]; [20],12.6 ± 0.6 ×10⁻⁶ cm/s
same,Permeability P1h,"BeWo monolayer; BeWo monoculture transfer model, static conditions, Li et al. ref 47",23.2 ×10⁻⁶ cm/s
same,"Transport, basolateral amount of the initial dose (ID)",BeWo b30 monolayer [15],45.9%
same,"Papp at 2 h, 100 µM",[16]; [17],37.2 ± 11.9 ×10⁻⁶ cm/s
same,"Papp at 2 h, 100 µM","[16]; Apparent permeability factor Pe, 2h, static, apical to basolateral, median ± mad",39.5 ± 8 ×10⁻⁶ cm/s
same,"Papp at 1 h, 100 µM","[16]; Permeability P1h, this study, static, compared with BeWo monolayer literature values",19.9 ×10⁻⁶ cm/s
same,"Papp at 2 h, 100 µM",[16]; [19],21.7 ± 0.3 ×10⁻⁶ cm/s
same,"Papp at 2 h, 100 µM",[16]; [20],19 ± 3.5 ×10⁻⁶ cm/s
